Experimental data: publication PMC5433425 (PeerJ, 2017)
“And” between values parts separate entries of the source, which are not always exact repeats. Equal entries are not always repeated.

How the values were obtained:
[1] = tested on: E. coli AG100tet; assay: EtBr efflux by real-time fluorometry; settings: 80 µM
Description: (§1) Control tubes with only cells and cells with and without 0.4% glucose were included. The fluorescence was measured in a Rotor-Gene 3000 and the data was acquired every 30 s for 30 min at 37 °C. The efflux activity was quantified by comparing the fluorescence data obtained under conditions that promote efflux (presence of glucose and absence of efflux inhibitor) with the data from the control in which the bacteria are under conditions of no efflux (presence of an inhibitor and no energy source).

[2] = tested on: E. coli AG100; assay: EtBr efflux by real-time fluorometry; settings: for EtBr fluorescence (Channel Cycling A.530/585hp): 80 µM, + glucose
Description: as §1

[3] = tested on: E. coli AG100tet (AcrAB overexpressing); assay: MIC, broth microdilution; format: cell-based, Escherichia coli; settings: E. coli AG100tet
[4] = tested on: E. coli AG100A; assay: microbe, parasite or virus in culture; format: cell-based, Escherichia coli
[5] = tested on: E. coli AG100A (AcrAB pump-deficient); assay: MIC, broth microdilution; format: cell-based, Escherichia coli

CCCOc1ccc(-c2cc(OCCN3CCNCC3)c3ccccc3n2)cc1 [PQQ4R, 4-(2-(piperazin-1-yl)ethoxy)-2-(4-propoxyphenyl) quinolone]
Fluorescence raw data, Channel Cycling A.530/585hp ([1]; cycle 41, + glucose): 5.036
Fluorescence raw data, Channel Cycling A.530/585hp ([1]; cycle 41, without glucose): 3.413
Fluorescence raw data, Channel Cycling A.530/585hp ([1]; cycle 42, + glucose): 4.946
Fluorescence raw data, Channel Cycling A.530/585hp ([1]; cycle 42, without glucose): 3.2813
Fluorescence raw data, Channel Cycling A.530/585hp ([1]; cycle 43, + glucose): 5.023
Fluorescence raw data, Channel Cycling A.530/585hp ([1]; cycle 43, without glucose): 3.329
Fluorescence raw data, Channel Cycling A.530/585hp ([1]; cycle 44, + glucose): 4.8625
Fluorescence raw data, Channel Cycling A.530/585hp ([1]; cycle 44, without glucose): 3.331
Fluorescence raw data, Channel Cycling A.530/585hp ([1]; cycle 45, without glucose): 3.333
Fluorescence raw data, Channel Cycling A.530/585hp ([1]; cycle 46, without glucose): 3.356
Fluorescence raw data, Channel Cycling A.530/585hp ([1]; cycle 47, without glucose): 3.3344
Fluorescence raw data, Channel Cycling A.530/585hp ([1]; cycle 48, without glucose): 3.246
Fluorescence raw data, Channel Cycling A.530/585hp ([1]; cycle 49, without glucose): 3.317
Fluorescence raw data, Channel Cycling A.530/585hp ([1]; cycle 50, without glucose): 3.306
Fluorescence raw data, Channel Cycling A.530/585hp ([1]; cycle 51, without glucose): 3.275
Fluorescence raw data, Channel Cycling A.530/585hp ([1]; cycle 52, without glucose): 3.293
Fluorescence raw data, Channel Cycling A.530/585hp ([1]; cycle 53, without glucose): 3.359
Fluorescence raw data, Channel Cycling A.530/585hp ([1]; cycle 54, without glucose): 3.295
Fluorescence raw data, Channel Cycling A.530/585hp ([1]; cycle 55, without glucose): 3.253
Fluorescence raw data, Channel Cycling A.530/585hp ([1]; cycle 56, without glucose): 3.229
Fluorescence raw data, Channel Cycling A.530/585hp ([1]; cycle 57, without glucose): 3.179
Fluorescence raw data, Channel Cycling A.530/585hp ([1]; cycle 58, without glucose): 3.169
Fluorescence raw data, Channel Cycling A.530/585hp ([1]; cycle 59, without glucose): 3.145
Fluorescence raw data, Channel Cycling A.530/585hp ([1]; cycle 60, without glucose): 3.211
Fluorescence raw data, Channel Cycling A.530/585hp ([1]; cycle 61, without glucose): 3.105
inhibition of EtBr efflux ([2]; AG100, AG100A and AG100tet (Fig. 2), 80 μM (20 μM for AG100A), glucose, 37 °C): inhibited
EtBr fluorescence (Channel Cycling A.530/585hp) ([2]; cycle 1): 14.1835
EtBr fluorescence (Channel Cycling A.530/585hp) ([2]; cycle 2): 12.9442
EtBr fluorescence (Channel Cycling A.530/585hp) ([2]; cycle 3): 12.1458
EtBr fluorescence (Channel Cycling A.530/585hp) ([2]; cycle 9): 9.004
EtBr fluorescence (Channel Cycling A.530/585hp) ([2]; cycle 10): 8.5432
EtBr fluorescence (Channel Cycling A.530/585hp) ([2]; cycle 11): 8.357
EtBr fluorescence (Channel Cycling A.530/585hp) ([2]; cycle 12): 8.087
EtBr fluorescence (Channel Cycling A.530/585hp) ([2]; cycle 13): 7.737
EtBr fluorescence (Channel Cycling A.530/585hp) ([2]; cycle 14): 7.571
EtBr fluorescence (Channel Cycling A.530/585hp) ([2]; cycle 15): 7.486
EtBr fluorescence (Channel Cycling A.530/585hp) ([2]; cycle 16): 7.363
EtBr fluorescence (Channel Cycling A.530/585hp) ([2]; cycle 17): 7.106
EtBr fluorescence (Channel Cycling A.530/585hp) ([2]; cycle 18): 6.949
EtBr fluorescence (Channel Cycling A.530/585hp) ([2]; cycle 19): 6.811
EtBr fluorescence (Channel Cycling A.530/585hp) ([2]; cycle 20): 6.647
EtBr fluorescence (Channel Cycling A.530/585hp) ([2]; cycle 21): 6.6451
EtBr fluorescence (Channel Cycling A.530/585hp) ([2]; cycle 22): 6.375
EtBr fluorescence (Channel Cycling A.530/585hp) ([2]; cycle 23): 6.294
EtBr fluorescence (Channel Cycling A.530/585hp) ([2]; cycle 24): 6.27
EtBr fluorescence (Channel Cycling A.530/585hp) ([2]; cycle 25): 6.171
EtBr fluorescence (Channel Cycling A.530/585hp) ([2]; cycle 26): 6.0708
EtBr fluorescence (Channel Cycling A.530/585hp) ([2]; cycle 27): 5.906
EtBr fluorescence (Channel Cycling A.530/585hp) ([2]; cycle 28): 5.869
EtBr fluorescence (Channel Cycling A.530/585hp) ([2]; cycle 29): 5.816
EtBr fluorescence (Channel Cycling A.530/585hp) ([2]; cycle 30): 5.711
EtBr fluorescence (Channel Cycling A.530/585hp) ([2]; cycle 31): 5.67
EtBr fluorescence (Channel Cycling A.530/585hp) ([2]; cycle 32): 5.576
EtBr fluorescence (Channel Cycling A.530/585hp) ([2]; cycle 33): 5.469
EtBr fluorescence (Channel Cycling A.530/585hp) ([2]; cycle 34): 5.4
EtBr fluorescence (Channel Cycling A.530/585hp) ([2]; cycle 35): 5.309
EtBr fluorescence (Channel Cycling A.530/585hp) ([2]; cycle 36): 5.284
EtBr fluorescence (Channel Cycling A.530/585hp) ([2]; cycle 37): 5.241
EtBr fluorescence (Channel Cycling A.530/585hp) ([2]; cycle 38): 5.208
EtBr fluorescence (Channel Cycling A.530/585hp) ([2]; cycle 39): 5.097
EtBr fluorescence (Channel Cycling A.530/585hp) ([2]; cycle 40): 5.016
EtBr fluorescence (Channel Cycling A.530/585hp) ([2]; cycle 41): 5.035
EtBr fluorescence (Channel Cycling A.530/585hp) ([2]; cycle 42): 4.981
EtBr fluorescence (Channel Cycling A.530/585hp) ([2]; cycle 43): 4.838
EtBr fluorescence (Channel Cycling A.530/585hp) ([2]; cycle 44): 4.747
MIC [3]: >653.9 µM
MIC of EtBr in presence of the efflux inhibitor ([4]; AG100A, inhibitor 40 μM): 0.39 µg/mL
MIC of OFX in presence of the efflux inhibitor ([4]; AG100A, inhibitor 40 μM): 0.03 µg/mL
MIC of OXA in presence of the efflux inhibitor ([4]; AG100A, inhibitor 40 μM): 1 µg/mL
MIC of TET in presence of the efflux inhibitor ([4]; AG100A, inhibitor 40 μM): 0.25 µg/mL
effect on the MIC of the antibiotics ([4]; AG100A, inhibitor 40 μM): no effect
reduction in EtBr MIC ([4]; AG100A, inhibitor 40 μM): ≈ 8 fold
growth of AG100A in presence of the inhibitor ([4]; concentrations above 40 µM): did not grow
MIC decrease against AG100A compared with wild-type parental strain ([5]; AG100A vs AG100): 8 fold
MIC ([5]; E. coli AG100A): 32 μg/ml and 81.7 μM
